Source: patent US8192962B2, “Processes for detecting toxic substances” (Daikin Industries, Ltd., priority 2001, dated 2012)

System: Transport facilitation protein genes
Test: DNA chip mRNA expression in yeast, transport facilitation protein genes (Table 5)
Format: cell-based, Saccharomyces cerevisiae S288C
Procedure, shortened: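 Values are treated/untreated fluorescence ratios from a whole-genome yeast DNA chip hybridized over 12 hours at 65° C with Cy3- or Cy5-labelled cDNA from poly(A) mRNA. Log-phase S288C yeast in YPD at 25° C had received a single toxic chemical for two hours, dosed to slow growth without killing.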

## O=[N+]([O-])c1cc[n+]([O-])c2ccccc12 [(5), 4-nitroquinolin-N-oxide]
Yeast gene YBL030C
  The level of expressed mRNA in the presence of chemical substance/The level of expressed mRNA in the absence of chemical substance: 0.7
Yeast gene YBL099W
  The level of expressed mRNA in the presence of chemical substance/The level of expressed mRNA in the absence of chemical substance: 1.0
Yeast gene YBR052C
  The level of expressed mRNA in the presence of chemical substance/The level of expressed mRNA in the absence of chemical substance: 1.4
Yeast gene YBR068C
  The level of expressed mRNA in the presence of chemical substance/The level of expressed mRNA in the absence of chemical substance: 1.4
Yeast gene YBR127C
  The level of expressed mRNA in the presence of chemical substance/The level of expressed mRNA in the absence of chemical substance: 1.4
Yeast gene YBR132C
  The level of expressed mRNA in the presence of chemical substance/The level of expressed mRNA in the absence of chemical substance: 0.8
Yeast gene YBR207W
  The level of expressed mRNA in the presence of chemical substance/The level of expressed mRNA in the absence of chemical substance: 1.7
Yeast gene YBR293W
  The level of expressed mRNA in the presence of chemical substance/The level of expressed mRNA in the absence of chemical substance: 0.8
Yeast gene YBR294W
  The level of expressed mRNA in the presence of chemical substance/The level of expressed mRNA in the absence of chemical substance: 1.4
Yeast gene YBR295W
  The level of expressed mRNA in the presence of chemical substance/The level of expressed mRNA in the absence of chemical substance: 0.8
Yeast gene YBR298C
  The level of expressed mRNA in the presence of chemical substance/The level of expressed mRNA in the absence of chemical substance: 1.4
Yeast gene YCL025C
  The level of expressed mRNA in the presence of chemical substance/The level of expressed mRNA in the absence of chemical substance: 0.9
Yeast gene YCL038C
  The level of expressed mRNA in the presence of chemical substance/The level of expressed mRNA in the absence of chemical substance: 1.2
Yeast gene YCR024C-A
  The level of expressed mRNA in the presence of chemical substance/The level of expressed mRNA in the absence of chemical substance: 0.9
Yeast gene YCR037C
  The level of expressed mRNA in the presence of chemical substance/The level of expressed mRNA in the absence of chemical substance: 1.3
Yeast gene YCR098C
  The level of expressed mRNA in the presence of chemical substance/The level of expressed mRNA in the absence of chemical substance: 1.4
Yeast gene YDL128W
  The level of expressed mRNA in the presence of chemical substance/The level of expressed mRNA in the absence of chemical substance: 1.0
Yeast gene YDL198C
  The level of expressed mRNA in the presence of chemical substance/The level of expressed mRNA in the absence of chemical substance: 0.7
Yeast gene YDL210W
  The level of expressed mRNA in the presence of chemical substance/The level of expressed mRNA in the absence of chemical substance: 0.9
Yeast gene YDL245C
  The level of expressed mRNA in the presence of chemical substance/The level of expressed mRNA in the absence of chemical substance: 1.3
Yeast gene YDR038C
  The level of expressed mRNA in the presence of chemical substance/The level of expressed mRNA in the absence of chemical substance: 0.9
Yeast gene YDR039C
  The level of expressed mRNA in the presence of chemical substance/The level of expressed mRNA in the absence of chemical substance: 1.3
Yeast gene YDR086C
  The level of expressed mRNA in the presence of chemical substance/The level of expressed mRNA in the absence of chemical substance: 1.0
Yeast gene YDR270W
  The level of expressed mRNA in the presence of chemical substance/The level of expressed mRNA in the absence of chemical substance: 1.0
Yeast gene YDR298C
  The level of expressed mRNA in the presence of chemical substance/The level of expressed mRNA in the absence of chemical substance: 1.3
Yeast gene YDR342C
  The level of expressed mRNA in the presence of chemical substance/The level of expressed mRNA in the absence of chemical substance: 1.6
Yeast gene YDR343C
  The level of expressed mRNA in the presence of chemical substance/The level of expressed mRNA in the absence of chemical substance: 1.3
Yeast gene YDR345C
  The level of expressed mRNA in the presence of chemical substance/The level of expressed mRNA in the absence of chemical substance: 1.3
Yeast gene YDR387C
  The level of expressed mRNA in the presence of chemical substance/The level of expressed mRNA in the absence of chemical substance: 0.9
Yeast gene YDR497C
  The level of expressed mRNA in the presence of chemical substance/The level of expressed mRNA in the absence of chemical substance: 0.7
Yeast gene YEL027W
  The level of expressed mRNA in the presence of chemical substance/The level of expressed mRNA in the absence of chemical substance: 1.0
Yeast gene YEL063C
  The level of expressed mRNA in the presence of chemical substance/The level of expressed mRNA in the absence of chemical substance: 1.2
Yeast gene YEL065W
  The level of expressed mRNA in the presence of chemical substance/The level of expressed mRNA in the absence of chemical substance: 1.4
Yeast gene YER053C
  The level of expressed mRNA in the presence of chemical substance/The level of expressed mRNA in the absence of chemical substance: 0.6
Yeast gene YFL011W
  The level of expressed mRNA in the presence of chemical substance/The level of expressed mRNA in the absence of chemical substance: 1.3
Yeast gene YFL041W
  The level of expressed mRNA in the presence of chemical substance/The level of expressed mRNA in the absence of chemical substance: 1.2
Yeast gene YFL050C
  The level of expressed mRNA in the presence of chemical substance/The level of expressed mRNA in the absence of chemical substance: 1.0
Yeast gene YFL054C
  The level of expressed mRNA in the presence of chemical substance/The level of expressed mRNA in the absence of chemical substance: 1.3
Yeast gene YGL006W
  The level of expressed mRNA in the presence of chemical substance/The level of expressed mRNA in the absence of chemical substance: 1.0
Yeast gene YGL008C
  The level of expressed mRNA in the presence of chemical substance/The level of expressed mRNA in the absence of chemical substance: 0.8
Yeast gene YGL104C
  The level of expressed mRNA in the presence of chemical substance/The level of expressed mRNA in the absence of chemical substance: 1.0
Yeast gene YGL167C
  The level of expressed mRNA in the presence of chemical substance/The level of expressed mRNA in the absence of chemical substance: 1.2
Yeast gene YGL255W
  The level of expressed mRNA in the presence of chemical substance/The level of expressed mRNA in the absence of chemical substance: 1.4
Yeast gene YGR055W
  The level of expressed mRNA in the presence of chemical substance/The level of expressed mRNA in the absence of chemical substance: 1.3
Yeast gene YGR065C
  The level of expressed mRNA in the presence of chemical substance/The level of expressed mRNA in the absence of chemical substance: 1.2
Yeast gene YGR082W
  The level of expressed mRNA in the presence of chemical substance/The level of expressed mRNA in the absence of chemical substance: 0.9
Yeast gene YGR096W
  The level of expressed mRNA in the presence of chemical substance/The level of expressed mRNA in the absence of chemical substance: 1.2
Yeast gene YGR138C
  The level of expressed mRNA in the presence of chemical substance/The level of expressed mRNA in the absence of chemical substance: 0.8
Yeast gene YGR191W
  The level of expressed mRNA in the presence of chemical substance/The level of expressed mRNA in the absence of chemical substance: 0.8
Yeast gene YGR197C
  The level of expressed mRNA in the presence of chemical substance/The level of expressed mRNA in the absence of chemical substance: 0.7
Yeast gene YGR224W
  The level of expressed mRNA in the presence of chemical substance/The level of expressed mRNA in the absence of chemical substance: 1.4
Yeast gene YGR260W
  The level of expressed mRNA in the presence of chemical substance/The level of expressed mRNA in the absence of chemical substance: 0.8
